Test results taken from article PMC10785662 (ACS Omega, 2023).

How the values were obtained:
KPC tumors = experiment: In vivo tumor growth study, KPC tumors in athymic nude mice; parameters: species or system mouse; details: 20 mg/kg IV, mice with KPC tumors
[1] = Pharmacokinetic assay in mice, plasma LC-MS/MS, two-compartment model; assay type: in vivo, mouse

## COc1cccc2c1C(=O)c1c(O)c3c(c(O)c1C2=O)C[C@@](O)(C(=O)CO)C[C@@H]3O[C@H]1C[C@H](N)[C@H](O)[C@H](C)O1 [doxorubicin, Doxorubicin]
KPC tumors
  time to toxicity-related fatality: ≤ 1 week
  toxicity-related fatality: toxicity-related fatality in all mice
[1]; male, ICR, mouse, plasma, iv, 6 mg/kg
  AUC: 260 ng·h/mL
[1]; mouse plasma, single IV dose 6.0 mg/kg doxorubicin-equivalent
  T1/2β (terminal half-life): 3.2 h
